Assay results as given in paper PMC12326988, “Synthetic host defense peptide inhibits SARS-CoV-2 replication in vitro” (Antimicrobial Agents and Chemotherapy, 2025).
Converted amounts (≈) assume the structure as drawn. Square brackets hold non-standard residues; d marks the D form. Ends that are not written are not given here. Peptide text beside a SMILES is read from it.

What was measured:
[1] = tested on: SARS-CoV-2 hCoV-19/New Zealand/NZ1_patient/2020; conditions: hCoV-19/New Zealand/NZ1 patient/2020, 72 h
[2] = tested on: MDCK cells; conditions: 50 µg/mL
[3] = tested on: SARS-CoV-2 (Wuhan) spike-pseudotyped virus; conditions: for EC50, entry of pseudotyped virus: HEK293T-ACE2 cells incubated with agent prior to pseudotyped virus
[4] = tested on: SARS-CoV-2 hCoV-19/New Zealand/NZ1_patient/2020; conditions: hCoV-19/New Zealand/NZ1 patient/2020, 72 h; remark: listed apart in the source
[5] = tested on: SARS-CoV-2-Nluc; conditions: 72 h
[6] = in vitro; conditions: African green monkey
[7] = in vitro; conditions: African green monkey; human
[8] = tested on: ELVIRA Flu A cells; conditions: 50 µg/mL
[9] = tested on: SARS-CoV-2 γ spike-pseudotyped virus; assay type: cell-based; conditions: virus exposed to agent 1 h, then HEK293T-hACE2 cells
[10] = tested on: authentic SARS-CoV-2 virions; conditions: 100 µg/mL, 1 h
[11] = tested on: VSV-g-pseudotyped virus; assay type: cell-based; conditions: virus exposed to agent 1 h, then HEK293T-hACE2 cells
[12] = tested on: binding of the SARS-CoV-2 RBD to its human ACE2 receptor; conditions: cited from earlier work
[13] = biological target: binding between SARS-CoV-2 Wuhan RBD-Fc and hACE2-AP (UniProt P0DTC2+Q9BYF1); parameters: species or system SARS-CoV-2; human
Sequence of binding between SARS-CoV-2 Wuhan RBD-Fc and hACE2-AP (Q9BYF1 18-740, one chain of several): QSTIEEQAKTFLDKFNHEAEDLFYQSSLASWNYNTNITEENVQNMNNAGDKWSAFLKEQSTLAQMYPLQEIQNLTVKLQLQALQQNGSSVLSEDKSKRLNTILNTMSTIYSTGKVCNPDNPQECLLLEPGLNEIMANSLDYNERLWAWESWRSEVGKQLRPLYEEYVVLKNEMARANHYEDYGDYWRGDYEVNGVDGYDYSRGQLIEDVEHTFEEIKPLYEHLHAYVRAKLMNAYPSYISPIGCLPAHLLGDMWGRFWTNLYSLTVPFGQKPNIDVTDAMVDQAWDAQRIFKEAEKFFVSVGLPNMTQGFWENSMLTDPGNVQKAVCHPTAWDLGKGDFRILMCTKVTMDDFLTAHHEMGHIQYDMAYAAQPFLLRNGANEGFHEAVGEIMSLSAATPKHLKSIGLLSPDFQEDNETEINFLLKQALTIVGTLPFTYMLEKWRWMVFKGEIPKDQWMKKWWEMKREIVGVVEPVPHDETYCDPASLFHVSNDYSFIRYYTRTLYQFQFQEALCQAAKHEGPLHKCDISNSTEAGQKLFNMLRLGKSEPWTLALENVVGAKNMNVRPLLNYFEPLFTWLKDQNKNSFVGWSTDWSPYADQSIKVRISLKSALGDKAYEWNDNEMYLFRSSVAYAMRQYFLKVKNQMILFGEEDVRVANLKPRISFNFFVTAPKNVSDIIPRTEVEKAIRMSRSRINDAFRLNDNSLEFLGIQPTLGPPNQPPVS

[14] = tested on: SARS-CoV-2 hCoV-19/New Zealand/NZ1_patient/2020; assay type: cell-based

CC[C@@H](C)[C@@H](N)C(=O)N[C@H](Cc1c[nH]c2ccccc12)C(=O)N[C@H](CC(C)C)C(=O)N[C@H](CCCNC(=N)N)C(=O)N[C@H](CC(C)C)C(=O)N[C@H](CCCCN)C(=O)N[C@@H](C(=O)N[C@@H](C(=O)N[C@H](CC(C)C)C(=O)N[C@H](CCCCN)C(=O)N[C@H](CCCNC(=N)N)C(=O)N[C@H](CCCCN)C(N)=O)C(C)C)C(C)C [D-3006, iwlrlkvvlkrk-NH2] (H-[dI][dW][dL][dR][dL][dK][dV][dV][dL][dK][dR][dK]-NH2)
EC50 VeroE6/TMPRSS2 [1]: 5.37 µg/mL (≈ 3.46 µM) | cell viability [2]: did not affect the viability | EC50, entry of pseudotyped virus [3]: 5.84 µg/mL | EC50 Vero [4]: 1.57 µg/mL (≈ 1.01 µM) | EC50 [5]: 5.4 µg/mL (≈ 3.48 µM) | CC50 [6]: 430 µg/mL | CC50 at 48 h [7]: > 100 µg/mL | cell viability [8]: did not affect the viability

CC[C@@H](C)[C@@H](NC(=O)[C@@H](C)NC(=O)[C@@H](CCCNC(=N)N)NC(=O)[C@@H](Cc1c[nH]c2ccccc12)NC(=O)[C@@H](CCC(N)=O)NC(=O)[C@H](N)C(C)C)C(=O)N[C@H](CCCNC(=N)N)C(=O)N[C@@H](C(=O)N[C@H](CCCNC(=N)N)C(=O)N[C@@H](C(=O)N[C@@H](C(=O)N[C@H](CCCNC(=N)N)C(N)=O)[C@H](C)CC)C(C)C)C(C)C [DJK-5, vqwrairvrvir-NH2] (H-[dV][dQ][dW][dR][dA][dI][dR][dV][dR][dV][dI][dR]-NH2)
EC50 VeroE6/TMPRSS2 [1]: 29.31 µg/mL (≈ 18.9 µM) | EC50 Vero [4]: 25.16 µg/mL (≈ 16.2 µM) | CC50 [6]: 517 µg/mL

CC[C@H](C)[C@H](NC(=O)CN)C(=O)NCC(=O)N[C@@H](C)C(=O)N[C@H](C(=O)N[C@@H](CC(C)C)C(=O)N[C@@H](CCCCN)C(=O)N[C@H](C(=O)N[C@@H](CC(C)C)C(=O)N[C@H](C(=O)N[C@H](C(=O)NCC(=O)N[C@@H](CC(C)C)C(=O)N1CCC[C@H]1C(=O)N[C@@H](C)C(=O)N[C@@H](CC(C)C)C(=O)N[C@H](C(=O)N[C@@H](CO)C(=O)N[C@@H](Cc1c[nH]c2ccccc12)C(=O)N[C@H](C(=O)N[C@@H](CCCCN)C(=O)N[C@@H](CCCNC(=N)N)C(=O)N[C@@H](CCCCN)C(=O)N[C@@H](CCCNC(=N)N)C(=O)N[C@@H](CCC(N)=O)C(=O)N[C@@H](CCC(N)=O)C(N)=O)[C@@H](C)CC)[C@@H](C)CC)[C@@H](C)O)[C@@H](C)O)C(C)C)C(C)C [melittin]
NT50 [9]: 11.6 µg/mL | EC50, entry of pseudotyped virus [3]: 13.2 µg/mL | NT50 ([3]; agent incubated with pseudotyped virus 1 h, then HEK293T-hACE2 cells): 12.5 µg/mL | mean number of intact virus particles per field [10]: 1.3 | NT50 [11]: 5.51 µg/mL | viability [7]: 51.7%

HNP1
affinity, interference with binding of SARS-CoV-2 RBD to human ACE2 [12]: 160 nM

shACE2
IC50, inhibition of hACE2-RBD binding [13]: 6.6 µg/mL | inhibition of SARS-CoV-2 replication [14]: 72% | NT50 [11]: > 100 µg/mL

LL-37
affinity, interference with binding of SARS-CoV-2 RBD to human ACE2 [12]: 25.5 nM

CC[C@@H](C)[C@@H](NC(=O)[C@@H](CCCCN)NC(=O)[C@@H](CC(C)C)NC(=O)[C@H](N)C(C)C)C(=O)N[C@H](CCCCN)C(=O)N[C@@H](C(=O)N[C@H](CCCCN)C(=O)N[C@@H](C(=O)N[C@H](Cc1c[nH]c2ccccc12)C(=O)N[C@@H](C(=O)N[C@@H](C(=O)N[C@H](CCCCN)C(N)=O)C(C)C)C(C)C)[C@H](C)CC)C(C)C [D-3007, vlkikvkiwvvk-NH2] (H-[dV][dL][dK][dI][dK][dV][dK][dI][dW][dV][dV][dK]-NH2)
EC50 VeroE6/TMPRSS2 [1]: 30.53 µg/mL (≈ 21 µM) | EC50 Vero [4]: 23.86 µg/mL (≈ 16.4 µM) | CC50 [6]: 708 µg/mL

VRLIVAVRIWRR-NH2 [IDR-1018]
EC50 VeroE6/TMPRSS2 [1]: 28.72 µg/mL | EC50 Vero [4]: 21.79 µg/mL | CC50 [6]: 686 µg/mL

CCC(CC)COC(=O)[C@H](C)N[P@](=O)(OC[C@H]1O[C@@](C#N)(c2ccc3c(N)ncnn23)[C@H](O)[C@@H]1O)Oc1ccccc1 [Remdesivir, remdesivir, reference compound]
inhibition of SARS-CoV-2 replication [14]: 98% | CC50 [6]: > 100 µM
